According to patent publication US9738610B2, “Indazole derivatives and uses thereof” (Whitehead Institute for Biomedical Research, priority 2012, dated 2017):
Converted amounts (≈) assume the structure as drawn.

Columns and labels:
[1] = IC50 values and selectivity of Table 10A (target yeast, anti-target human cytochrome); assay type: biochemical
Protocol: (§1) All measurements were performed in triplicate.

yeast = biological target: T1, yeast (Saccharomyces cerevisiae, UniProt P00163); assay: as above; assay type: biochemical; settings: for Selectivity* (anti-target IC50)/(target IC50): target yeast, anti-target human cytochrome
T1 construct: Mitochondrial membranes were prepared from yeast; endogenous in cells; host or cells: yeast (mitochondrial membranes)
Protocol: as §1

fungus = settings: cited from earlier work
[2] = tested on: Candida albicans wild-type; assay: De novo emergence of fluconazole resistance (colonies after six days); assay type: cell-based; settings: I-97 0.5 μM combined with fluconazole 32 mg/L
Protocol: Candida albicans wild-type (WT, FIG. 13, top panel) or rip1/rip1 homozygous deletion mutant (rip1 Δ/Δ, FIG. 13, middle panel) were plated on media in the presence of fluconazole (32 mg/L) or in the absence of fluconazole. The emergence of colonies was monitored after six days.

[3] = tested on: Candida albicans strain CaCi-2; assay: Cytotoxicity to fluconazole-resistant strain CaCi-2; assay type: cell-based; settings: combination with fluconazole
[4] = tested on: Candida albicans strain SC5314; assay: Cytotoxicity to fluconazole-sensitive strain SC5314; assay type: cell-based; settings: combination with fluconazole
[5] = tested on: Saccharomyces cerevisiae strain W303-1a; assay: In vivo inhibition of fungal respiration (growth on glycerol); assay type: cell-based; settings: glycerol medium, 48 hours
Protocol: Saccharomyces cerevisiae (S. cerevisiae) strain W303-1a was grown overnight in Yeast-Peptone-Dextrose media, washed, and diluted into Yeast Nitrogen Base media with 2.5% glycerol containing compounds at a range of dilutions.

Aspergillus terreus = Aspergillus terreus susceptibility test (CLSI M38-A2); assay type: cell-based
Protocol: Aspergillus terreus (A. terreus) susceptibility testing was performed as described in Clinical Laboratory Standards Institute document […]-A2 (CLSI […]-A2) (CLSI. Reference Method for Broth Dilution Antifungal Susceptibility Testing of Filamentous Fungi; Approved Standard-Second Edition. CLSI, 940 West Valley Road, Suite 1400, Wayne, Pa. 19087-1898 USA, 2003).

[6] = tested on: fluconazole-resistant C. albicans strain Gu5; settings: cited from earlier work
[7] = tested on: fluconazole-susceptible C. albicans strain 90028; settings: cited from earlier work

Structure (SMILES)	IC50 [1]	Selectivity* (anti-target IC50)/(target IC50) (yeast)	also measured
COC(=O)Cn1nc(-c2cccc([N+](=O)[O-])c2)c2ccccc21 [Compound I-119]	0.5 µM	160	–
c1ccc(-c2nn(Cc3nnco3)c3ccccc23)cc1 [Compound I-74]	3 µM	53	–
COC(=O)Cn1nc(-c2ccsc2)c2ccccc21 [Compound I-77]	0.625 µM	48	–
CCCCc1oc2ccccc2c1C(=O)c1cc(I)c(OCCN(CC)CC)c(I)c1 [amiodarone]	–	–	MIC50, single-agent antifungal activity (fungus): 3.1 µM (≈ 2 µg/mL)
Cc1cccc2c(-c3cc(C(F)(F)F)ccc3F)nn(Cc3nnn(C)n3)c12 [Compound I-99]	0.023 µM	160	–
COC(=O)Cn1nc(-c2cccc(OCCCC3CCCCC3)c2)c2ccccc21 [Compound I-78]	0.01 µM	100	–
COC(=O)Cn1nc(-c2cccc(OCCC(C)(C)C)c2)c2ccccc21 [Compound I-79]	0.04 µM	50	–
COC(=O)Cn1nc(-c2cc(C(F)(F)F)ccc2F)c2cccc(C)c21 [Compound I-97]	–	200	Emergence of resistance to fluconazole [2]: prevented the emergence of the resistance to fluconazole; Effect on CaCi-2 [3]: cytotoxic; IC50 (yeast; target is yeast): 0.004 µM; Effect on SC5314 [4]: cytotoxic
COC(=O)Cn1nc(-c2cccc(OCc3ccccc3)c2F)c2ccccc21 [Compound I-134]	0.2 µM	20	–
Cc1cc(Cn2nc(-c3ccccc3)c3ccccc32)on1 [Compound I-92]	30 µM	>5	–
COC(=O)Cn1nc(-c2cccc(OCc3ccccc3)c2)c2ccccc21 [Compound I-7]	–	–	Inhibitory activity against S. cerevisiae (respiratory growth) [5]: shows inhibitory activity; Inhibitory activity against A. terreus (Aspergillus terreus): shows inhibitory activity
Cn1nnc(Cn2nc(-c3cc(OCCCC4CCCCC4)ccc3F)c3ccccc32)n1 [Compound I-102]	0.046 µM	16	–
COC(=O)Cn1nc(-c2cccc(C#N)c2)c2ccccc21 [Compound I-118]	1.25 µM	96	–
COC(=O)Cn1nc(-c2cc(OCc3ccccc3)ccc2F)c2ccccc21 [Compound I-136]	0.06 µM	8.3	–
COC(=O)Cn1nc(-c2cccc(OCc3ccccc3)c2)c2ccccc21 [Compound I-140]	0.4 µM	8	–
COC(=O)Cn1nc(-c2ccccc2)c2cccc(C)c21 [Compound I-82]	0.125 µM	40	–
Clc1ccc2c(c1)nnc1nnnn12 [CTBT, 7-chlorotetrazolo[5,1-c]benzo[1,2,4]triazine]	–	–	Concentrations inhibiting growth in the absence of fluconazole [6]: greater than 2.4 μM; MIC when combined with fluconazole [6]: 2.4 µM; Activity in the absence of fluconazole [7]: no activity; MIC when combined with fluconazole [7]: 2.4 µM
c1ccc(-c2nn(Cc3cnccn3)c3ccccc23)cc1 [Compound I-115]	0.63 µM	128	–
